The text below walks through data of ChEMBL document CHEMBL5500426, “Directly Suppressing MYC Function with Novel Alkynyl-Substituted Phenylpyrazole Derivatives that Induce Protein Degradation and Perturb MYC/MAX Interaction” (J Med Chem, 2024).

Structures are written as SMILES.

Data set [1] is described as follows: Cytotoxicity against human GES1 cells assessed as inhibition of cell growth incubated for 72 hrs by MTT assay. It is filed as toxicity, cell-based. On the technique in general: Formazan colour is commonly taken as a measure of viable cells.
A further data set deals with SK-N-BE(2). Kind of data set: Antiproliferative activity against human SK-N-BE(2) cells assessed as inhibition of cell growth incubated for 72 hrs by MTT assay. The class given is functional, cell-based. As to conditions: SKNBE2, 72 h.
For the next data set, the system named is A549. Briefly: Antiproliferative activity against human A549 cells assessed as inhibition of cell growth incubated for 72 hrs by MTT assay. The class given is functional, cell-based. The note with it: A549, 72 h.
Another data set relates to HepG2. Briefly: Antiproliferative activity against human HepG2 cells assessed as inhibition of cell growth incubated for 72 hrs by MTT assay. The class given is functional, cell-based. The note with it: HepG2, 72 h.
The test system of the next data set is HL-60. Briefly: Antiproliferative activity against human HL-60 cells assessed as inhibition of cell growth incubated for 72 hrs by MTT assay. The class given is functional, cell-based. The note with it: HL-60, 72 h.
A short description of data set [2]: Half life in Sprague-Dawley rat at 2 mg/kg,iv administration by LC-MS/MS analysis. The class given is ADME, organism-based. The note with it: in vivo.
Data set [3] in a line: AUC (0 to t) in Sprague-Dawley rat at 2 mg/kg,iv administration by LC-MS/MS analysis. It is filed as ADME, organism-based. As to conditions: in vivo.
A short description of data set [4]: Clearance in Sprague-Dawley rat at 2 mg/kg,iv administration by LC-MS/MS analysis. It is filed as ADME, organism-based. As to conditions: in vivo.
The nature of data set [5]: Clearance in Sprague-Dawley rat at 10 mg/kg,ip administration by LC-MS/MS analysis. It is filed as ADME, organism-based. The note with it: in vivo.
The subject of a further data set is PC-3. Kind of data set: Antitumor activity against human PC-3 cells xenografted in BALB/C mouse assessed as tumor growth inhibition at 75 mg/kg,ip administrated daily for 21 consecutive days relative to control. It is filed as functional. As to conditions: read-out: TGI. A general note: In xenograft studies the graft and the host belong to different species.
The nature of data set [6]: Toxicity in BALB/C mouse xenografted with human PC-3 cells assessed as histopathological change in kidney at 50 to 100 mg/kg,ip administrated daily for 21 consecutive days by hematoxylin and eosin staining based microscopic analysis. The note with it: in vivo, dose 50-100 mg/kg. The class given is organism-based.
In data set [7] the test system is Myc-CaP. Kind of data set: Antitumor activity against mouse Myc-CaP cells implanted in FVB mouse assessed as reduction in tumor volume at ip administrated daily for 14 consecutive days. The class given is functional, organism-based.
In data set [8] the test system is Myc-CaP. Kind of data set: Antitumor activity against mouse Myc-CaP cells implanted in FVB mouse assessed as tumor growth inhibition at 30 mg/kg,ip administrated daily for 14 consecutive days relative to control. It is filed as functional. As to conditions: read-out: TGI.
Data set [9] can be described thus: Toxicity in FVB mouse implanted with mouse Myc-CaP cells assessed as histopathological change in heart at 10 to 50 mg/kg,ip administrated daily for 14 consecutive days by hematoxylin and eosin staining based microscopic analysis. It is filed as organism-based. The note with it: in vivo, dose 10-50 mg/kg.
Data set [10] in a line: Toxicity in FVB mouse implanted with mouse Myc-CaP cells assessed as histopathological change in spleen at 10 to 50 mg/kg,ip administrated daily for 14 consecutive days by hematoxylin and eosin staining based microscopic analysis. As to conditions: in vivo, dose 10-50 mg/kg. It is filed as organism-based.

As usually defined, the IC50 is the midpoint of a concentration-inhibition curve. As usually defined, the half-life is the time in which the quantity being followed falls by half. A low value points to rapid decline. As a reminder, the AUC(0-t) is exposure summed from dosing to a finite time, without extrapolation to infinity. A higher AUC(0-t) goes with more exposure. As usually defined, the clearance is the volume of plasma or blood freed of the substance per unit of time. Low values mean inefficient removal, high ones efficient removal. The CL/F is the apparent clearance, not corrected for the fraction that reaches the circulation. In the case of `Oc1c(-c2cc(C(F)(F)F)n[nH]2)ccc(C#CCCN2CCOCC2)c1-c1ccc(Cl)c(C(F)(F)F)c1`, the IC50 at 72 h in [1] is more than 100 µM. The concentration for half-maximal inhibition (IC50) in the data set on SK-N-BE(2) was found to be 1.25 µM; with A549, 1.24 µM; with HepG2 it was 1.09 µM; with HL-60, 1.89 µM. This molecule gave a half-life in data set [2] of 3.22 h. Moreover, the exposure AUC(0-t) in data set [3] worked out at 1400 ng·h/mL. Moreover, the clearance in data set [4] worked out at 23.6 mL/min/kg. This molecule also showed a CL/F in data set [5] of 74 mL/min/kg. The inhibition in vivo at 75 mg/kg in the data set with PC-3 is 69%. Also, the Activity entry in data set [6] is “Non-Toxic”; with Myc-CaP [7] it was “Dose-Dependent Effect”; in [9], “Non-Toxic”; in data set [10] it was “Non-Toxic”. Also, the inhibition in vivo at 30 mg/kg in the data set with Myc-CaP [8] is 67%.
